Assay results reported in PubChem BioAssay (NCI).
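Protocol summary: plate cells (96-well), add compound at 5 concentrations, incubate 48 h, interpolate endpoints linearly. TGI denotes the concentration required for complete inhibition of growth.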

Columns and labels:
Assay in all cases: NCI tumour cell line growth inhibition, 48 h
HCT-15 colon = tested on: HCT-15 colon
LOX IMVI melanoma = tested on: LOX IMVI melanoma
UACC-62 melanoma = tested on: UACC-62 melanoma
SNB-78 CNS = tested on: SNB-78 CNS
LXFL 529 NSCLC = tested on: LXFL 529 NSCLC
IGROV1 ovarian = tested on: IGROV1 ovarian
DLD-1 colon = tested on: DLD-1 colon
NCI-H23 lung = tested on: NCI-H23 lung
SNB-75 CNS = tested on: SNB-75 CNS
UACC-257 melanoma = tested on: UACC-257 melanoma
CAKI-1 renal = tested on: CAKI-1 renal
K-562 leukemia = tested on: K-562 leukemia
MALME-3M melanoma = tested on: MALME-3M melanoma
TK-10 renal = tested on: TK-10 renal
ACHN renal = tested on: ACHN renal
SN12C renal = tested on: SN12C renal
M14 melanoma = tested on: M14 melanoma
OVCAR-8 ovarian = tested on: OVCAR-8 ovarian
HOP-62 NSCLC = tested on: HOP-62 NSCLC
XF 498 CNS = tested on: XF 498 CNS
COLO 205 colon = tested on: COLO 205 colon
SK-OV-3 ovarian = tested on: SK-OV-3 ovarian
HCC-2998 colon = tested on: HCC-2998 colon
SF-268 CNS = tested on: SF-268 CNS
SK-MEL-2 melanoma = tested on: SK-MEL-2 melanoma
SF-539 CNS = tested on: SF-539 CNS
HOP-18 NSCLC = tested on: HOP-18 NSCLC
CCRF-CEM leukemia = tested on: CCRF-CEM leukemia
SW-620 colon = tested on: SW-620 colon
DMS 114 small cell lung = tested on: DMS 114 small cell lung
OVCAR-3 ovarian = tested on: OVCAR-3 ovarian
MOLT-4 leukemia = tested on: MOLT-4 leukemia
NCI-H522 lung = tested on: NCI-H522 lung
HT29 colon = tested on: HT29 colon
DMS 273 small cell lung = tested on: DMS 273 small cell lung
786-0 renal = tested on: 786-0 renal
SK-MEL-5 melanoma = tested on: SK-MEL-5 melanoma
OVCAR-4 ovarian = tested on: OVCAR-4 ovarian
KM12 colon = tested on: KM12 colon
A549 NSCLC = tested on: A549 NSCLC
EKVX NSCLC = tested on: EKVX NSCLC
UO-31 renal = tested on: UO-31 renal
NCI-H226 lung = tested on: NCI-H226 lung
SK-MEL-28 melanoma = tested on: SK-MEL-28 melanoma
RPMI-8226 leukemia = tested on: RPMI-8226 leukemia
HL-60(TB) leukemia = tested on: HL-60(TB) leukemia
SF-295 CNS = tested on: SF-295 CNS
NCI-H460 lung = tested on: NCI-H460 lung
M19-MEL melanoma = tested on: M19-MEL melanoma
U251 CNS = tested on: U251 CNS
KM20L2 colon = tested on: KM20L2 colon
A498 renal = tested on: A498 renal
SNB-19 CNS = tested on: SNB-19 CNS
OVCAR-5 ovarian = tested on: OVCAR-5 ovarian
RXF 393 renal = tested on: RXF 393 renal
SR leukemia = tested on: SR leukemia
HCT-116 colon = tested on: HCT-116 colon
HOP-92 NSCLC = tested on: HOP-92 NSCLC

**Q.** With `COc1ccc2c(c1)[n+]([O-])c(-c1ccccc1)c(N)[n+]2[O-]` as the compound, how does the TGI (HCT-15 colon) read?
**A.** The TGI was > 100 µM.

**Q.** And the TGI (LOX IMVI melanoma)?
**A.** Its TGI is > 100 µM.

**Q.** What about the TGI (UACC-62 melanoma) of the same compound?
**A.** The TGI was > 100 µM.

**Q.** And the TGI (SNB-78 CNS)?
**A.** Its TGI is > 100 µM.

**Q.** What about the TGI (LXFL 529 NSCLC) of the same compound?
**A.** The TGI was 98.7 µM.

**Q.** And the TGI (IGROV1 ovarian)?
**A.** The TGI was > 100 µM.

**Q.** What about the TGI (DLD-1 colon) of the same compound?
**A.** The TGI was > 100 µM.

**Q.** And the TGI (NCI-H23 lung)?
**A.** Its TGI is 61.7 µM.

**Q.** And the TGI (SNB-75 CNS)?
**A.** The TGI was > 100 µM.

**Q.** And the TGI (UACC-257 melanoma)?
**A.** Its TGI is 71.6 µM.

**Q.** What about the TGI (CAKI-1 renal) of the same compound?
**A.** Its TGI is 92.3 µM.

**Q.** And the TGI (K-562 leukemia)?
**A.** The TGI was > 100 µM.

**Q.** And the TGI (MALME-3M melanoma)?
**A.** Its TGI is 47.2 µM.

**Q.** What about the TGI (TK-10 renal) of the same compound?
**A.** Its TGI is > 100 µM.

**Q.** What about the TGI (ACHN renal) of the same compound?
**A.** Its TGI is > 100 µM.

**Q.** And the TGI (SN12C renal)?
**A.** Its TGI is > 100 µM.

**Q.** And the TGI (M14 melanoma)?
**A.** The TGI was 78.9 µM.

**Q.** What about the TGI (OVCAR-8 ovarian) of the same compound?
**A.** Its TGI is > 100 µM.

**Q.** And the TGI (HOP-62 NSCLC)?
**A.** The TGI was 96.7 µM.

**Q.** And the TGI (XF 498 CNS)?
**A.** Its TGI is 82.6 µM.

**Q.** What about the TGI (COLO 205 colon) of the same compound?
**A.** Its TGI is 44.4 µM.

**Q.** What about the TGI (SK-OV-3 ovarian) of the same compound?
**A.** Its TGI is > 100 µM.

**Q.** What about the TGI (HCC-2998 colon) of the same compound?
**A.** The TGI was > 100 µM.

**Q.** What about the TGI (SF-268 CNS) of the same compound?
**A.** Its TGI is > 100 µM.

**Q.** And the TGI (SK-MEL-2 melanoma)?
**A.** Its TGI is > 100 µM.

**Q.** And the TGI (SF-539 CNS)?
**A.** Its TGI is > 100 µM.

**Q.** And the TGI (HOP-18 NSCLC)?
**A.** The TGI was 97 µM.

**Q.** And the TGI (CCRF-CEM leukemia)?
**A.** The TGI was > 100 µM.

**Q.** What about the TGI (SW-620 colon) of the same compound?
**A.** Its TGI is > 100 µM.

**Q.** And the TGI (DMS 114 small cell lung)?
**A.** Its TGI is 79.2 µM.

**Q.** And the TGI (OVCAR-3 ovarian)?
**A.** The TGI was > 100 µM.

**Q.** What about the TGI (MOLT-4 leukemia) of the same compound?
**A.** Its TGI is > 100 µM.

**Q.** And the TGI (NCI-H522 lung)?
**A.** Its TGI is 34.4 µM.

**Q.** And the TGI (HT29 colon)?
**A.** The TGI was > 100 µM.

**Q.** And the TGI (DMS 273 small cell lung)?
**A.** The TGI was > 100 µM.

**Q.** And the TGI (786-0 renal)?
**A.** The TGI was > 100 µM.

**Q.** And the TGI (SK-MEL-5 melanoma)?
**A.** Its TGI is 35 µM.

**Q.** What about the TGI (OVCAR-4 ovarian) of the same compound?
**A.** The TGI was > 100 µM.

**Q.** What about the TGI (KM12 colon) of the same compound?
**A.** The TGI was > 100 µM.

**Q.** What about the TGI (A549 NSCLC) of the same compound?
**A.** Its TGI is > 100 µM.

**Q.** And the TGI (EKVX NSCLC)?
**A.** Its TGI is > 100 µM.

**Q.** And the TGI (UO-31 renal)?
**A.** The TGI was > 100 µM.

**Q.** What about the TGI (NCI-H226 lung) of the same compound?
**A.** Its TGI is > 100 µM.

**Q.** What about the TGI (SK-MEL-28 melanoma) of the same compound?
**A.** The TGI was 69.3 µM.

**Q.** And the TGI (RPMI-8226 leukemia)?
**A.** Its TGI is > 100 µM.

**Q.** And the TGI (HL-60(TB) leukemia)?
**A.** Its TGI is > 100 µM.

**Q.** And the TGI (SF-295 CNS)?
**A.** Its TGI is > 100 µM.

**Q.** And the TGI (NCI-H460 lung)?
**A.** Its TGI is > 100 µM.

**Q.** What about the TGI (M19-MEL melanoma) of the same compound?
**A.** The TGI was > 100 µM.

**Q.** What about the TGI (U251 CNS) of the same compound?
**A.** The TGI was > 100 µM.

**Q.** What about the TGI (KM20L2 colon) of the same compound?
**A.** The TGI was > 100 µM.

**Q.** What about the TGI (A498 renal) of the same compound?
**A.** Its TGI is > 100 µM.

**Q.** And the TGI (SNB-19 CNS)?
**A.** Its TGI is > 100 µM.

**Q.** And the TGI (OVCAR-5 ovarian)?
**A.** Its TGI is > 100 µM.

**Q.** What does the source list for `O=C1N(c2ccccc2)C(=O)C2(SC=NN2Cc2ccccc2)N1c1ccccc1` (configuration not stated)?
**A.** TGI (LOX IMVI melanoma): > 100 µM; TGI (UACC-62 melanoma): > 100 µM; TGI (SNB-78 CNS): > 100 µM; TGI (RXF 393 renal): > 100 µM; TGI (LXFL 529 NSCLC): > 100 µM; TGI (IGROV1 ovarian): > 100 µM; TGI (DLD-1 colon): > 100 µM; TGI (NCI-H23 lung): > 100 µM; TGI (SNB-75 CNS): > 100 µM; TGI (UACC-257 melanoma): > 100 µM; TGI (CAKI-1 renal): > 100 µM; TGI (K-562 leukemia): > 100 µM; TGI (MALME-3M melanoma): > 100 µM; TGI (TK-10 renal): > 100 µM; TGI (ACHN renal): > 100 µM; TGI (SN12C renal): > 100 µM; TGI (M14 melanoma): > 100 µM; TGI (OVCAR-8 ovarian): > 100 µM; TGI (HOP-62 NSCLC): > 100 µM; TGI (XF 498 CNS): > 100 µM; TGI (COLO 205 colon): > 100 µM; TGI (SK-OV-3 ovarian): > 100 µM; TGI (SR leukemia): > 100 µM; TGI (HCC-2998 colon): > 100 µM; TGI (SF-268 CNS): > 100 µM; TGI (SF-539 CNS): > 100 µM; TGI (HCT-116 colon): > 100 µM; TGI (HOP-18 NSCLC): > 100 µM; TGI (CCRF-CEM leukemia): > 100 µM; TGI (SW-620 colon): > 100 µM; TGI (DMS 114 small cell lung): > 100 µM; TGI (HOP-92 NSCLC): > 100 µM; TGI (OVCAR-3 ovarian): > 100 µM; TGI (MOLT-4 leukemia): > 100 µM; TGI (NCI-H522 lung): > 100 µM; TGI (HT29 colon): > 100 µM; TGI (786-0 renal): > 100 µM; TGI (SK-MEL-5 melanoma): > 100 µM; TGI (OVCAR-4 ovarian): > 100 µM; TGI (KM12 colon): > 100 µM; TGI (A549 NSCLC): > 100 µM; TGI (EKVX NSCLC): > 100 µM; TGI (UO-31 renal): > 100 µM; TGI (NCI-H226 lung): > 100 µM; TGI (SK-MEL-28 melanoma): > 100 µM; TGI (HL-60(TB) leukemia): > 100 µM; TGI (SF-295 CNS): > 100 µM; TGI (NCI-H460 lung): > 100 µM; TGI (M19-MEL melanoma): > 100 µM; TGI (U251 CNS): > 100 µM; TGI (KM20L2 colon): > 100 µM; TGI (A498 renal): > 100 µM; TGI (SNB-19 CNS): > 100 µM
